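Test compounds were applied to cells in 96-well plates for 48 hours at 5 doses. GI50 = concentration required for 50% inhibition of growth. The concentration for full growth arrest is given as TGI.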
Columns and labels:
Experiment in all cases: NCI tumour cell line growth inhibition, 48 h
A549 NSCLC = system: A549 NSCLC
MALME-3M melanoma = system: MALME-3M melanoma
BT-549 breast = system: BT-549 breast
HCC-2998 colon = system: HCC-2998 colon
MDA-MB-231 breast = system: MDA-MB-231 breast
NCI-H226 lung = system: NCI-H226 lung
HCT-116 colon = system: HCT-116 colon
SK-OV-3 ovarian = system: SK-OV-3 ovarian
SN12C renal = system: SN12C renal
SW-620 colon = system: SW-620 colon
SK-MEL-2 melanoma = system: SK-MEL-2 melanoma
U251 CNS = system: U251 CNS
PC-3 prostate = system: PC-3 prostate
RPMI-8226 leukemia = system: RPMI-8226 leukemia
ACHN renal = system: ACHN renal
OVCAR-3 ovarian = system: OVCAR-3 ovarian
NCI-H522 lung = system: NCI-H522 lung
MDA-MB-435 = system: MDA-MB-435
NCI-H23 lung = system: NCI-H23 lung
SF-295 CNS = system: SF-295 CNS
OVCAR-4 ovarian = system: OVCAR-4 ovarian
HOP-62 NSCLC = system: HOP-62 NSCLC
CAKI-1 renal = system: CAKI-1 renal
SNB-75 CNS = system: SNB-75 CNS
LOX IMVI melanoma = system: LOX IMVI melanoma
SNB-19 CNS = system: SNB-19 CNS
UO-31 renal = system: UO-31 renal
T-47D breast = system: T-47D breast
OVCAR-8 ovarian = system: OVCAR-8 ovarian
TK-10 renal = system: TK-10 renal
HCT-15 colon = system: HCT-15 colon
EKVX NSCLC = system: EKVX NSCLC
OVCAR-5 ovarian = system: OVCAR-5 ovarian
A498 renal = system: A498 renal
HL-60(TB) leukemia = system: HL-60(TB) leukemia
SK-MEL-28 melanoma = system: SK-MEL-28 melanoma
UACC-257 melanoma = system: UACC-257 melanoma
KM12 colon = system: KM12 colon
HS 578T breast = system: HS 578T breast
IGROV1 ovarian = system: IGROV1 ovarian
HOP-92 NSCLC = system: HOP-92 NSCLC
HT29 colon = system: HT29 colon
UACC-62 melanoma = system: UACC-62 melanoma
NCI/ADR-RES ovarian = system: NCI/ADR-RES ovarian
SR leukemia = system: SR leukemia
SK-MEL-5 melanoma = system: SK-MEL-5 melanoma
K-562 leukemia = system: K-562 leukemia
MCF7 breast = system: MCF7 breast
SF-268 CNS = system: SF-268 CNS
COLO 205 colon = system: COLO 205 colon
786-0 renal = system: 786-0 renal
DU-145 prostate = system: DU-145 prostate
NCI-H460 lung = system: NCI-H460 lung
MOLT-4 leukemia = system: MOLT-4 leukemia
CCRF-CEM leukemia = system: CCRF-CEM leukemia
RXF 393 renal = system: RXF 393 renal
M14 melanoma = system: M14 melanoma
SF-539 CNS = system: SF-539 CNS

## COc1c(B(O)O)cc(F)cc1-c1nc2ccc3[nH]ncc3c2c2c1CCCC2
A549 NSCLC
  GI50: 1.17 µM
  TGI: 16 µM
MALME-3M melanoma
  GI50: 3.54 µM
  TGI: 6.82 µM
BT-549 breast
  GI50: 0.044 µM
  TGI: 1.76 µM
HCC-2998 colon
  GI50: 2.08 µM
  TGI: 5.61 µM
MDA-MB-231 breast
  GI50: < 0.01 µM
  TGI: 15 µM
NCI-H226 lung
  GI50: 2 µM
  TGI: 7.85 µM
HCT-116 colon
  GI50: 0.322 µM
  TGI: 10.3 µM
SK-OV-3 ovarian
  GI50: 1.13 µM
  TGI: 13.9 µM
SN12C renal
  GI50: 1.15 µM
  TGI: 15.3 µM
SW-620 colon
  GI50: 0.66 µM
  TGI: 11.2 µM
SK-MEL-2 melanoma
  GI50: 2.67 µM
  TGI: 7.05 µM
U251 CNS
  GI50: 1.6 µM
  TGI: 13.1 µM
PC-3 prostate
  GI50: 1.9 µM
  TGI: 11.3 µM
RPMI-8226 leukemia
  GI50: 1.12 µM
  TGI: 5.58 µM
ACHN renal
  GI50: 1.12 µM
  TGI: 16.3 µM
OVCAR-3 ovarian
  GI50: 2.95 µM
  TGI: 10.2 µM
NCI-H522 lung
  GI50: 1.03 µM
  TGI: 11.7 µM
MDA-MB-435
  GI50: 1.78 µM
  TGI: 3.6 µM
NCI-H23 lung
  GI50: 2.02 µM
  TGI: 7.61 µM
SF-295 CNS
  GI50: 1.76 µM
  TGI: 10.8 µM
OVCAR-4 ovarian
  GI50: 3.8 µM
  TGI: 12.1 µM
HOP-62 NSCLC
  GI50: < 0.0212 µM
  TGI: 11.5 µM
CAKI-1 renal
  GI50: < 0.01 µM
  TGI: 0.134 µM
SNB-75 CNS
  GI50: < 0.01 µM
  TGI: 0.0607 µM
LOX IMVI melanoma
  GI50: 0.727 µM
  TGI: 3.43 µM
SNB-19 CNS
  GI50: 1.73 µM
  TGI: 13 µM
UO-31 renal
  GI50: 0.045 µM
  TGI: 9.21 µM
T-47D breast
  GI50: 2.62 µM
  TGI: 8.99 µM
OVCAR-8 ovarian
  GI50: 1.55 µM
  TGI: 17.7 µM
TK-10 renal
  GI50: < 0.01 µM
  TGI: 9.43 µM
HCT-15 colon
  GI50: 2.12 µM
  TGI: 9.44 µM
EKVX NSCLC
  GI50: 2.37 µM
  TGI: 10.2 µM
OVCAR-5 ovarian
  GI50: 2.46 µM
  TGI: 16.9 µM
A498 renal
  GI50: 0.0664 µM
  TGI: 2.52 µM
HL-60(TB) leukemia
  GI50: 0.112 µM
  TGI: 10.5 µM
SK-MEL-28 melanoma
  GI50: 2.69 µM
  TGI: 8.47 µM
UACC-257 melanoma
  GI50: 3.65 µM
  TGI: 12.5 µM
KM12 colon
  GI50: 1.26 µM
  TGI: 7.62 µM
HS 578T breast
  GI50: 0.0173 µM
  TGI: 5.43 µM
IGROV1 ovarian
  GI50: 1.49 µM
  TGI: 11.2 µM
HOP-92 NSCLC
  GI50: < 0.01 µM
  TGI: 14.4 µM
HT29 colon
  GI50: 3.07 µM
  TGI: 21.1 µM
UACC-62 melanoma
  GI50: 1.55 µM
  TGI: 5.85 µM
NCI/ADR-RES ovarian
  GI50: 2.03 µM
  TGI: 13.7 µM
SR leukemia
  GI50: 0.108 µM
  TGI: > 38.6 µM
SK-MEL-5 melanoma
  GI50: 1.99 µM
  TGI: 7.34 µM
K-562 leukemia
  GI50: 3.27 µM
  TGI: > 100 µM
MCF7 breast
  GI50: 1.53 µM
  TGI: 6.57 µM
SF-268 CNS
  GI50: 1.42 µM
  TGI: 10.5 µM
COLO 205 colon
  GI50: 1.61 µM
  TGI: 4.97 µM
786-0 renal
  GI50: 0.279 µM
  TGI: 5.84 µM
DU-145 prostate
  GI50: 1.7 µM
  TGI: 12.9 µM
NCI-H460 lung
  GI50: 0.822 µM
  TGI: 10.5 µM
MOLT-4 leukemia
  GI50: 1.18 µM
  TGI: > 100 µM
CCRF-CEM leukemia
  GI50: 0.53 µM
  TGI: > 38.6 µM
RXF 393 renal
  GI50: < 0.01 µM
  TGI: 0.294 µM
M14 melanoma
  GI50: 2.64 µM
  TGI: 5.44 µM
SF-539 CNS
  GI50: 0.0686 µM
  TGI: 2.24 µM

## Cc1cc(I)cc(CN(C)CCCN2CCN(C)CC2)c1O
A549 NSCLC
  GI50: 36 µM
  TGI: > 100 µM
MALME-3M melanoma
  GI50: 19.9 µM
  TGI: 36.2 µM
BT-549 breast
  GI50: 21 µM
  TGI: > 73.9 µM
HCC-2998 colon
  GI50: 24.7 µM
  TGI: 56.8 µM
MDA-MB-231 breast
  GI50: 24.1 µM
  TGI: > 68.3 µM
NCI-H226 lung
  GI50: 56.9 µM
  TGI: > 100 µM
HCT-116 colon
  GI50: 12.6 µM
  TGI: > 86.1 µM
SK-OV-3 ovarian
  GI50: 65.7 µM
  TGI: > 100 µM
SN12C renal
  GI50: > 94.8 µM
  TGI: > 100 µM
SW-620 colon
  GI50: 24.2 µM
  TGI: > 67.7 µM
SK-MEL-2 melanoma
  GI50: 22.3 µM
  TGI: 46.1 µM
U251 CNS
  GI50: 30.9 µM
  TGI: > 100 µM
PC-3 prostate
  GI50: 52.2 µM
  TGI: > 100 µM
RPMI-8226 leukemia
  GI50: 16.1 µM
  TGI: 45.2 µM
ACHN renal
  GI50: 81.6 µM
  TGI: > 100 µM
OVCAR-3 ovarian
  GI50: > 64.5 µM
  TGI: > 100 µM
NCI-H522 lung
  GI50: 46.4 µM
  TGI: 97.1 µM
MDA-MB-435
  GI50: 14.4 µM
  TGI: 31.4 µM
NCI-H23 lung
  GI50: 82.4 µM
  TGI: > 100 µM
SF-295 CNS
  GI50: 18.5 µM
  TGI: 39.6 µM
OVCAR-4 ovarian
  GI50: > 73.1 µM
  TGI: > 100 µM
HOP-62 NSCLC
  GI50: 17 µM
  TGI: 36.3 µM
CAKI-1 renal
  GI50: 20.3 µM
  TGI: 47.3 µM
SNB-75 CNS
  GI50: 31.5 µM
  TGI: > 100 µM
LOX IMVI melanoma
  GI50: 17.2 µM
  TGI: 36.1 µM
SNB-19 CNS
  GI50: > 100 µM
  TGI: > 100 µM
UO-31 renal
  GI50: 37.5 µM
  TGI: > 100 µM
T-47D breast
  GI50: 28.7 µM
  TGI: 91.1 µM
OVCAR-8 ovarian
  GI50: 80.8 µM
  TGI: > 100 µM
TK-10 renal
  GI50: 61.7 µM
  TGI: > 100 µM
HCT-15 colon
  GI50: 21.1 µM
  TGI: 59 µM
EKVX NSCLC
  GI50: 79.3 µM
  TGI: > 100 µM
OVCAR-5 ovarian
  GI50: 78.7 µM
  TGI: > 100 µM
A498 renal
  GI50: 23.6 µM
  TGI: 54.2 µM
HL-60(TB) leukemia
  GI50: 27.1 µM
  TGI: > 57.9 µM
SK-MEL-28 melanoma
  GI50: 17.2 µM
  TGI: 33 µM
UACC-257 melanoma
  GI50: 35 µM
  TGI: > 57.5 µM
KM12 colon
  GI50: 35.6 µM
  TGI: > 100 µM
HS 578T breast
  GI50: 23.6 µM
  TGI: > 68.1 µM
IGROV1 ovarian
  GI50: 40.5 µM
  TGI: > 100 µM
HOP-92 NSCLC
  GI50: 37.9 µM
  TGI: > 100 µM
HT29 colon
  GI50: 13.7 µM
  TGI: 41.2 µM
UACC-62 melanoma
  GI50: 6.89 µM
  TGI: 19.3 µM
NCI/ADR-RES ovarian
  GI50: 77.8 µM
  TGI: > 100 µM
SR leukemia
  GI50: 20.1 µM
  TGI: > 55.1 µM
SK-MEL-5 melanoma
  GI50: 16.1 µM
  TGI: 29.9 µM
K-562 leukemia
  GI50: 14.6 µM
  TGI: 40.1 µM
MCF7 breast
  GI50: 26 µM
  TGI: 82.7 µM
SF-268 CNS
  GI50: 35 µM
  TGI: > 100 µM
COLO 205 colon
  GI50: 19.3 µM
  TGI: 42 µM
786-0 renal
  GI50: 18.6 µM
  TGI: > 54.2 µM
DU-145 prostate
  GI50: 75 µM
  TGI: > 100 µM
NCI-H460 lung
  GI50: 32.8 µM
  TGI: > 100 µM
MOLT-4 leukemia
  GI50: 21.7 µM
  TGI: > 63.8 µM
CCRF-CEM leukemia
  GI50: 45.7 µM
  TGI: > 100 µM
RXF 393 renal
  GI50: 21.7 µM
  TGI: > 81.2 µM
M14 melanoma
  GI50: 4.67 µM
  TGI: 23.9 µM
SF-539 CNS
  GI50: 16 µM
  TGI: 33 µM

— PubChem BioAssay (NCI)
